Reference: article PMC3105188 (The Journal of steroid biochemistry and molecular biology, 2011)
Residue numbers refer to the chain shown, from its start. Entries after “also recorded” stand apart in the source; their conditions may differ. Like-named read-outs stand apart in the source and are kept apart here.

Tests used:
[1] = test system: hVDR H305F; settings: antagonist on wild-type hVDR; cited from earlier work
[2] = target: T1, hVDR mutant H305F/H397Y (Homo sapiens, UniProt P11473, H305F/H397Y); assay type: cell-based
T1 sequence (P11473 127-423 H305F/H397Y limits assumed): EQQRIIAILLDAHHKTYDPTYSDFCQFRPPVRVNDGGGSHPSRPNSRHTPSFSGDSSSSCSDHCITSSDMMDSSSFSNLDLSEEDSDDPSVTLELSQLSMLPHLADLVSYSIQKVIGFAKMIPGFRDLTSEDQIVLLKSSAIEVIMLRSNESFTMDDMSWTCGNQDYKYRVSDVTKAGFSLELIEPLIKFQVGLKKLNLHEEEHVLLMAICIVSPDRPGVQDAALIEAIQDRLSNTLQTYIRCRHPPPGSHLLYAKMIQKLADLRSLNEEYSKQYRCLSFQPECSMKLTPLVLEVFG

[3] = target: T2, hVDR mutant H305F (Homo sapiens, UniProt P11473, H305F); assay type: cell-based; settings: HEK293T
T2 sequence (P11473 127-423 H305F limits assumed): T1 sequence (P11473 127-423 H305F/H397Y limits assumed) with Y271H

[4] = target: T3, wild-type hVDR (Homo sapiens, UniProt P11473); assay type: cell-based; settings: HEK293T
T3 sequence (P11473 127-423 limits assumed): T1 sequence (P11473 127-423 H305F/H397Y limits assumed) with F179H, Y271H

[5] = target: T4, hVDR mutant H305Y (Homo sapiens, UniProt P11473, H305Y); assay type: cell-based; settings: HEK293T
T4 sequence (P11473 127-423 H305Y limits assumed): T1 sequence (P11473 127-423 H305F/H397Y limits assumed) with F179Y, Y271H

[6] = target: T5, wild-type hVDR (Homo sapiens, UniProt P11473); assay type: cell-based
T5 sequence (P11473 1-427): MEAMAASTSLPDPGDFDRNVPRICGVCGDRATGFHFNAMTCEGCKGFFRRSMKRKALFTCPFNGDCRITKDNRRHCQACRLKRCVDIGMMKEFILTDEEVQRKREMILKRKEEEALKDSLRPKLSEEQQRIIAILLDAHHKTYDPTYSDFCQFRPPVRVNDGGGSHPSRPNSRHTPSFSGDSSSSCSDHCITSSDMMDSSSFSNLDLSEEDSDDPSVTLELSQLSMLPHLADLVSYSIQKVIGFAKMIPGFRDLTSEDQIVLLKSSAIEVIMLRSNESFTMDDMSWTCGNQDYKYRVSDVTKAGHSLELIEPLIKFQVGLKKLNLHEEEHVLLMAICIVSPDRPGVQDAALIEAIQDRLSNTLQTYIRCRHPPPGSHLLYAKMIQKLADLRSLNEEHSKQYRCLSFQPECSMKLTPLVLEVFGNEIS

[7] = target: hVDR mutant H305F (Homo sapiens, UniProt P11473, H305F); test: Chemical complementation, yeast PJ69-4A liquid quantitation growth assay; assay type: cell-based
Target sequence in this assay (P11473 127-423 H305F limits assumed): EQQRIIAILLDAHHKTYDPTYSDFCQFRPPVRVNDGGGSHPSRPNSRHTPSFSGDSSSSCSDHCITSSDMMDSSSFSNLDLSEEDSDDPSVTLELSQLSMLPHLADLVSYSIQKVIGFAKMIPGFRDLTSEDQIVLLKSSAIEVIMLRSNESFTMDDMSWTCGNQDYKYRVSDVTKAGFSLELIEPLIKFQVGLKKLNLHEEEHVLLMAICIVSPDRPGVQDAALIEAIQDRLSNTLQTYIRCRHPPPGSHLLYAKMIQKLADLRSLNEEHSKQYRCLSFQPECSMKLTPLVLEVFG
Target sequence in this assay (Q9Y6Q9 whole entry partner): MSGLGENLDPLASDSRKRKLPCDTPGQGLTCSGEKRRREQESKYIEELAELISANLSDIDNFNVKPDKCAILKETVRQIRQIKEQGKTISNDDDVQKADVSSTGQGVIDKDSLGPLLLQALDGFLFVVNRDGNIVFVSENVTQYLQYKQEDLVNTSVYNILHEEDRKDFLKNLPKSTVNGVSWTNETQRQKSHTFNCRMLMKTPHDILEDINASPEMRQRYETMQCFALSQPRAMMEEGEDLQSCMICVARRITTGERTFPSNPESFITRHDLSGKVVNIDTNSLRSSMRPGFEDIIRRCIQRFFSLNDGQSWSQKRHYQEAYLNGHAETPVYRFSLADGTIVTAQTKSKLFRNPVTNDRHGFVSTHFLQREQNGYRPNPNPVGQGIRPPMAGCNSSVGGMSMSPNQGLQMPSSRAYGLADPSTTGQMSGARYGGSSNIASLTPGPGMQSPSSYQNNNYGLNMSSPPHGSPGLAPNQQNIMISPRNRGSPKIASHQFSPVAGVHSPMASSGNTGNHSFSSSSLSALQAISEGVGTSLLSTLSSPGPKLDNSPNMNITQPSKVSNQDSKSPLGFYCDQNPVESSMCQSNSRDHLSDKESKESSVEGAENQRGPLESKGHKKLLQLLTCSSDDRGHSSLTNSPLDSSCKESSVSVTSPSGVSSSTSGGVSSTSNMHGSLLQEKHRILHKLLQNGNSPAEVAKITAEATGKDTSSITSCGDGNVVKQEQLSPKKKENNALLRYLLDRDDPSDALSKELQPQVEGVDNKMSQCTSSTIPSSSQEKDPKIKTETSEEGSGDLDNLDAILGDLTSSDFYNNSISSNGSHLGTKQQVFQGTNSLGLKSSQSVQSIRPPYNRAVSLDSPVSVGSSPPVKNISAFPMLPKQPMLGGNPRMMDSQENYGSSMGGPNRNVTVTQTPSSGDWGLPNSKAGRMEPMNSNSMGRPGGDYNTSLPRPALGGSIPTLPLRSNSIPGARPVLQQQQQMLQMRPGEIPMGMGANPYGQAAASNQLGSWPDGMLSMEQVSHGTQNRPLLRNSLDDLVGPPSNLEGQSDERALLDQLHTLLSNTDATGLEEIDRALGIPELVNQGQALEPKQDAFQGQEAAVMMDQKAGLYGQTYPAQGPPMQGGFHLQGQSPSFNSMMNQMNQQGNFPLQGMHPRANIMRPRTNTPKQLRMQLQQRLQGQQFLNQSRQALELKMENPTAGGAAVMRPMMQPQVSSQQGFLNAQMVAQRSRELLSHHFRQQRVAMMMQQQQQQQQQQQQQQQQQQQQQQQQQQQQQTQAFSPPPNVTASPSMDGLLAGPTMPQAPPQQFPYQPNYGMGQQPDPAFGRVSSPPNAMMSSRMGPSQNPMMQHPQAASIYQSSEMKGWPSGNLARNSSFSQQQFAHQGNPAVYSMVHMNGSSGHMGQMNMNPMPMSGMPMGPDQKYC

[8] = target: hVDR mutant H305Y (Homo sapiens, UniProt P11473, H305Y); test: as above; assay type: cell-based
Target sequence in this assay (P11473 127-423 H305Y limits assumed): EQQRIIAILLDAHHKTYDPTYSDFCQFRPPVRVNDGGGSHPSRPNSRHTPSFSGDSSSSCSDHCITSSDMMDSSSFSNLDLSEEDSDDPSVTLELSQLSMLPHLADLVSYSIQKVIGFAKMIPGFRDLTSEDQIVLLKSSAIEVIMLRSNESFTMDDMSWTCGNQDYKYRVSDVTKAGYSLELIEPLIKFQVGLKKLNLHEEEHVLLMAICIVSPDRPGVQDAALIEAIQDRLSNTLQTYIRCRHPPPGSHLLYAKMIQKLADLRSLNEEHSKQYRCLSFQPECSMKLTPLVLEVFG
Target sequence in this assay (Q9Y6Q9 whole entry partner): as the sequence (Q9Y6Q9 whole entry partner) above

[9] = target: hVDR mutant H305F/H397Y (Homo sapiens, UniProt P11473, H305F/H397Y); settings: adenine selective media (-ALW)
Target sequence in this assay (Q9Y6Q9 whole entry partner, one chain of several): as the sequence (Q9Y6Q9 whole entry partner) above

[10] = histidine selective media (data not shown)

SMILES	functional character with the H305F mutation (in words) [1]	lowest ligand concentration giving activation ([2]; mammalian cell assays)	ligand concentration at which activation is displayed [3]	activation of receptor (in words) [4]	ligand concentration at which activation is displayed [5]	ligand-activated growth (in words) ([6]; Figure 2B, any ligand concentration)	ligand concentration at which growth is observed ([7]; adenine selective media (-ALW))	ligand concentration at which growth is observed [7, 10]	ligand concentration at which activation is displayed ([2]; HEK293T)	ligand concentration at which growth is observed ([8]; adenine selective media (-ALW))	ligand concentration at which growth is observed [8, 10]	ligand concentration at which activation is displayed [4]	ligand concentration at which growth/activation is observed [9]	ligand-activated growth (in words) ([6]; adenine selective media (-ALW))	ligand concentration at which growth is observed ([6]; histidine selective media (SC-HLW + 0.1 mM 3AT), OD 630)
C=C1C[C@H](C[C@@H](C)[C@H]2CC[C@H]3/C(=C/C=C4/C[C@@H](O)C[C@H](O)C4=C)CCC[C@]23C)OC1=O [MK, (23S)-25-dehydro-1alpha(OH)-vitamin D3-26,23-lactone]	superagonist	–	–	–	–	–	–	–	–	–	–	–	–	–	–
C=C1CC[C@H](O)C/C1=C/C=C1\CCC[C@]2(C)[C@@H]([C@H](C)CCCC(C)C)CC[C@@H]12 [Cholecalciferol, cholecalciferol]	–	100 nM	1 µM	does not activate; also recorded: no activation	1 µM	No ligand activated growth; also recorded: not observed	–	–	–	–	–	–	–	–	–
C[C@H](CCC(=O)O)[C@H]1CC[C@H]2[C@@H]3CC[C@@H]4C[C@H](O)CC[C@]4(C)[C@H]3CC[C@]12C [Lithocholic Acid, lithocholic acid]	–	–	–	–	1 µM	–	1 µM	0.1 µM	1 µM	1 µM	0.1 µM	100 µM	1 µM	no growth	10 µM
